Data as given in ChEMBL document CHEMBL3351465, “Discovery of functionalized bisimidazoles bearing cyclic aliphatic-phenyl motifs as HCV NS5A inhibitors” (Bioorg Med Chem Lett, 2014).
Converted amounts (≈) assume the structure as drawn.

What was measured:
[1] = Inhibition of NS5A in HCV genotype-1b infected in human HuH7 cells by luciferase reporter gene assay; type: cell-based, Hepatitis C virus subtype 1b; details: Hepatitis C virus, Huh-7
[2] = Inhibition of NS5A in HCV genotype-1a infected in human HuH7 cells by luciferase reporter gene assay; type: cell-based, Hepatitis C virus subtype 1a; details: Hepatitis C virus, Huh-7
[3] = Tmax in Sprague-Dawley rat at 10 mg/kg, po; type: ADME, organism-based; design: dose 10 mg/kg, route oral; details: in vivo
[4] = AUClast in Sprague-Dawley rat at 10 mg/kg, po; type: ADME, organism-based; design: time 0 - last, dose 10 mg/kg, route oral; details: plasma
[5] = Cmax in Sprague-Dawley rat at 10 mg/kg, po; type: ADME, organism-based; design: dose 10 mg/kg, route oral; details: in vivo
[6] = Solubility of the compound at pH 7.4 by UV detection method; type: physicochemical; details: buffer

Row | Structure (SMILES) | EC50 [1] [pM] | EC50 [2] [pM] | Tmax [3] [h] | AUC(0-t) [4] [ng·h/mL] | Cmax [5] [ng/mL] | solubility [6] [µg/mL]
1 | COC(=O)N[C@H](C(=O)N[C@@H](C)c1ncc(-c2cc(F)c(N3CCC(c4cnc([C@@H]5CCCN5C(=O)[C@@H](NC(=O)OC)C(C)C)[nH]4)CC3)c(F)c2)[nH]1)C(C)C | 270 | 39000 | – | – | – | –
2 | COC(=O)N[C@H](C(=O)N1CCC[C@H]1c1ncc(-c2ccc([C@H]3CC[C@H](c4cnc([C@@H]5CCCN5C(=O)[C@@H](NC(=O)OC)C5CC5)[nH]4)CC3)cc2)[nH]1)C1CC1 | 860 | 4500 | – | – | – | –
3 | CC[C@H](C)[C@H](NC(=O)OC)C(=O)N1CCC[C@H]1c1ncc(-c2ccc([C@H]3CC[C@H](c4cnc([C@@H]5CCCN5C(=O)[C@@H](NC(=O)OC)[C@@H](C)CC)[nH]4)CC3)cc2)[nH]1 | 50 | 4100 | – | – | – | –
4 | COC(=O)N[C@H](C(=O)N1CCC[C@H]1c1ncc(-c2ccc([C@H]3CC[C@H](c4cnc([C@@H]5CCCN5C(=O)[C@@H](NC(=O)OC)[C@@H](C)OC)[nH]4)CC3)cc2)[nH]1)[C@@H](C)OC | 190 | 1400 | – | – | – | –
5 | COC(=O)N[C@H](C(=O)N1CCC[C@H]1c1ncc(-c2ccc([C@H]3CC[C@H](c4cnc([C@@H]5CCCN5C(=O)[C@@H](c5ccccc5)N(C)C)[nH]4)CC3)cc2)[nH]1)C(C)C | 140 | 1700 | – | – | – | –
6 | COC(=O)N[C@@H](C(=O)N1CCC[C@H]1c1ncc(-c2ccc([C@H]3CC[C@H](c4cnc([C@@H]5CCCN5C(=O)[C@@H](c5ccccc5)N(C)C)[nH]4)CC3)cc2)[nH]1)c1ccccc1 | 110 | 1400 | 1.67 | 255 | 54.1 | –
7 | COC(=O)N[C@H](C(=O)N1CCC[C@H]1c1ncc(-c2ccc([C@H]3CC[C@H](c4cnc([C@@H]5CCCN5C(=O)[C@H](C(C)C)N(C)C)[nH]4)CC3)cc2)[nH]1)C(C)C | 700 | > 100000 | – | – | – | –
8 | COC(=O)N[C@H](C(=O)N1CCC[C@H]1c1ncc(-c2ccc([C@H]3CC[C@H](c4cnc([C@@H]5CCCN5C(=O)[C@H](NC(=O)OC)c5ccccc5)[nH]4)CC3)cc2)[nH]1)C(C)C | 50 | 2600 | – | – | – | –
9 | COC(=O)N[C@H](C(=O)N1CCC[C@H]1c1ncc([C@H]2CC[C@H](c3ccc(-c4cnc([C@@H]5CCCN5C(=O)[C@H](NC(=O)OC)c5ccccc5)[nH]4)cc3)CC2)[nH]1)C(C)C | 88 | 4400 | – | – | – | –

The remaining lines, values ahead:

Row | EC50 [1] [pM] | EC50 [2] [pM] | Tmax [3] [h] | AUC(0-t) [4] [ng·h/mL] | Cmax [5] [ng/mL] | solubility [6] [µg/mL] | Structure (SMILES)
10 | 140 | 68000 | – | – | – | – | COC(=O)N[C@H](C(=O)N[C@@H](C)c1ncc(C2CCN(c3c(F)cc(-c4cnc([C@@H]5CCCN5C(=O)[C@@H](NC(=O)OC)C(C)C)[nH]4)cc3F)CC2)[nH]1)C(C)C
11 | 70 | 25000 | – | – | – | – | COC(=O)N[C@H](C(=O)N[C@H](c1ncc(C2CCN(c3c(F)cc(-c4cnc([C@@H]5CCCN5C(=O)[C@@H](NC(=O)OC)C(C)C)[nH]4)cc3F)CC2)[nH]1)C(C)C)C(C)C
12 | 40 | 73000 | – | – | – | – | COC(=O)N[C@@H](C(=O)N1CCOC[C@H]1c1ncc(-c2cc(F)c(N3CCC(c4cnc([C@@H]5CCCN5C(=O)[C@H](NC(=O)OC)c5ccccc5)[nH]4)CC3)c(F)c2)[nH]1)c1ccccc1
13 | 330 | 7200 | – | – | – | – | COC(=O)N[C@@H](C)C(=O)N1CCC[C@H]1c1ncc(-c2ccc([C@H]3CC[C@H](c4cnc([C@@H]5CCCN5C(=O)[C@H](C)NC(=O)OC)[nH]4)CC3)cc2)[nH]1
14 | 23 | 140 | – | – | – | 6.8 (≈ 9.2 µM) | COC(=O)N[C@H](C(=O)N1CCC[C@H]1c1ncc(-c2ccc(-c3ccc(-c4cnc([C@@H]5CCCN5C(=O)[C@@H](NC(=O)OC)C(C)C)[nH]4)cc3)cc2)[nH]1)C(C)C [DACLATASVIR]
